From US10604742B2, “Adsorptive membranes for trapping viruses” (Wisconsin Alumni Research Foundation, priority 2006, dated 2020)
Where two headings read alike, the source gives them in different places.

How the values were obtained:
[1] = target: bovine serum albumin (BSA) (Bos taurus, UniProt P02769); assay: Function test 1: static BSA binding capacity of ligand-functionalized regenerated cellulose membranes (BCA method); conditions: 20 mM piperazine, pH 6.0
Procedure: These ligands were evaluated using two different function tests. In the first function test, bovine serum albumin (BSA) in 20 mM piperazine, pH 6.0, with and without added NaCl, was incubated with a functionalized regenerated cellulose membrane. Bound BSA was then measured using the bicinchoninic acid (BCA) colorimetric method. Function test 1 measured the static protein binding capacity of the membranes under conditions where the pH was close to the isoelectric point of the protein (pI of BSA=5.1). In this function test, the protein had only a weak charge and was sensitive to added salt. This first function test was designed to mimic the binding of a neutral virus where the charge is weak.
Each ligand was immobilized onto regenerated cellulose membranes having 0.45 μm pore diameter using allyl glycidyl ether. The allylated membrane was then brominated. Lastly the ligand was coupled to the membrane via the primary amine on the ligand.

neutral virus φX174 [2] = assay: Function test 2: LRV for φX174 using functionalized membranes in flow mode, TE buffer pH 7.5; type: binding, bacteriophage φX174; conditions: for φX174 LRV: TE buffer pH 7.5
Text: In these examples, the neutral virus φX174 is used because is one of five model non-pathogenic bacteriophage viruses commonly used in filtration studies to represent the gamut of physical properties of potential adventitious viruses of danger to humans (e.g., size, pI, presence or absence of a membrane). In short, the φX174 virus is an art-recognized virus for modeling viral clearance of dangerous pathogens.
Function test 2 measured the LRV for the neutral virus φX174 using the functionalized membranes in flow mode with TE buffer (10 mM Tris, 1 mM EDTA, pH 7.5) with and without added NaCl. Each ligand was immobilized onto regenerated cellulose membranes having 0.45 μm pore diameter using allyl glycidyl ether. The allylated membrane was then brominated. Lastly the ligand was coupled to the membrane via the primary amine on the ligand.

[3] = cited from earlier work
φX174 = conditions: cited from earlier work
neutral virus φX174 [4] = assay: Example 3: φX174 clearance by AGM membrane in presence of basic protein ribonuclease A (FIG. 10); type: binding, bacteriophage φX174; conditions: 0.5 g/L ribonuclease A, TE buffer pH 7.5, with and without added NaCl
Procedure: FIG. 10 is a graph depicting the performance of a virus-trapping membrane containing the immobilized ligand agmatine to remove a neutral virus (φX174) from a solution comprising a basic protein (0.5 g/L ribonuclease) and different concentrations of salt (□=0 mM NaCl; ▴=50 mM NaCl; ▪=150 mM NaCl).
AGM, for example, meets these requirements. […] According to the methods of Example 2, a disposable, micro-porous, regenerated-cellulose virus-trapping membrane was fabricated containing the ligand AGM immobilized on the membrane. The basic protein ribonuclease A (pI˜9.5) was used as a mAb surrogate. A feed solution comprising the neutral virus φX174 and 0.5 g/L of the basic protein ribonuclease A, both dissolved in TE buffer (10 mM Tris, 1 mM EDTA, pH 7.5), with and without added NaCl, was loaded into the membrane. Viral clearance was not reduced by the presence of the basic protein.

[5] = high-salt buffer (23 mS/cm); cited from earlier work

bovine serum albumin (BSA), sequence (P02769 25-607): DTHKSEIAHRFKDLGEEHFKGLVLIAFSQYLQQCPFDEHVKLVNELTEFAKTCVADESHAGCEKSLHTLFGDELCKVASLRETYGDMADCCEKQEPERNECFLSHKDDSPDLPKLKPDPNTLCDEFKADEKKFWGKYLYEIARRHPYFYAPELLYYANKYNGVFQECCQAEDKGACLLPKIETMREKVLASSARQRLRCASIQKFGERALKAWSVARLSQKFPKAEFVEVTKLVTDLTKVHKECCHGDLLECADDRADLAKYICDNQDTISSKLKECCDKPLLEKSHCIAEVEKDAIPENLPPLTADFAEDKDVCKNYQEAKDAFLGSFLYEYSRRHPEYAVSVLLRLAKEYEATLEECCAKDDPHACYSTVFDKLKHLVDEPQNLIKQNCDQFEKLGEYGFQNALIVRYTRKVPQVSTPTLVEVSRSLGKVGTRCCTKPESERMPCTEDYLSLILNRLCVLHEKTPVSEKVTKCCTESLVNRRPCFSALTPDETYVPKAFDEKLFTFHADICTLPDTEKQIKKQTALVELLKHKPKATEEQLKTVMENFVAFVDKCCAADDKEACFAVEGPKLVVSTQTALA

SMILES | BSA Static Capacity ([1]; 0 mM NaCl) [mg/m^2] | BSA Static Capacity ([1]; 50 mM NaCl) [mg/m^2] | BSA Static Capacity ([1]; 150 mM NaCl) [mg/m^2] | φX174 LRV (neutral virus φX174 [2]; 0 mM NaCl) | φX174 LRV (neutral virus φX174 [2]; 50 mM NaCl) | φX174 LRV (neutral virus φX174 [2]; 150 mM NaCl) | pKa [3] | viral clearance of φX174 (LRV) (φX174; 0 mM salt) | viral clearance of φX174 (LRV) (φX174; 0 mM salt, listed as “MUSTANG”® Q-brand adsorptive ligand) | viral clearance of φX174 (LRV) (φX174; 50 mM salt) | viral clearance of φX174 (LRV) (φX174; 50 mM salt, listed as “MUSTANG”® Q-brand adsorptive ligand) | φX174 clearance (LRV) in the presence of salt (neutral virus φX174 [2]; in the presence of salt (50 and 150 mM)) | salt tolerance of viral clearance (neutral virus φX174 [2]; moderate salt concentration) | charge at neutral pH [3] | viral clearance (LRV) of φX174 after adding the basic protein (neutral virus φX174 [4]) | dynamic binding capacity greater than the average of the five best non-aromatic anion-exchange ligands [5] [%] | dynamic binding capacity relative to the Q ligand [5] [times]
Nc1nc2ccccc2[nH]1 [ABI, 2-aminobenzimidazole] | 414 | 204 | 108 | 5.4 | 1.8 | 1.0 | – | – | – | – | – | – | – | – | – | – | –
C[N+](C)(C)CCN.[Cl-] [AETMA, 2-aminoethyltrimethylammonium chloride, reference compound] | 551 | 42 | 10 | 6.6 | 0.1 | 0.1 | >12 | six | 6 | 1 | less than 1 LRV | ≈ 0.1 | not salt tolerant | – | – | – | –
N=C(N)NCCCCN [AGM, Agmatine] | 1000 | 319 | 116 | 5.5 | 5.5 | 5.9 | – | – | – | – | – | – | – | positive charge | ≈ 6.0 | – | –
NCC(O)CN [DHP, 1,3-diamino-2-hydroxypropane] | 946 | 392 | 85 | 5.4 | 2.1 | 0.1 | – | – | – | – | – | – | – | – | – | – | –
NCC(O)c1ccc(O)cc1 (stereo not shown) [OCT, Octopamine] | 280 | 290 | 250 | 5.4 | 1.1 | 0.7 | – | – | – | – | – | – | – | – | – | – | –
N[C@H](CO)Cc1ccccc1 [PHA, Phenylalaninol] | 330 | 46 | 10 | 2.8 | 0.1 | 0.0 | – | – | – | – | – | – | – | – | – | – | –
NCCN(CCN)CCN [TAEA, tris(2-aminoethyl)amine] | – | – | – | 7.6 | 5.8 | 5.1 | – | – | – | – | – | – | – | – | – | – | –
N[C@H](CO)Cc1c[nH]c2ccccc12 [TRP, Tryptophanol] | 668 | 297 | 131 | 5.4 | 1.1 | 1.0 | – | – | – | – | – | – | – | – | – | – | –
N[C@H](CO)Cc1ccc(O)cc1 [TYR, Tyrosinol] | 638 | 284 | 137 | 6.4 | 2.7 | 0.9 | 10.8 | – | – | – | – | – | – | positively charged | – | 63 | 36
